Tests used:
CCK-B receptor = target: T1, CCK-B receptor (Mus musculus, UniProt P56481); assay: CCK-B receptor antagonism: displacement of [3H]CCK-8 from crude membrane of cerebral cortex; type: binding, mouse (male ddY); conditions: [3H]CCK-8 1 nM, 90 min, 25° C.
T1 construct: crude membrane specimen from mouse cerebral cortex; from tissue; host or cells: cerebral cortex of male ddY mice, crude membranes
T1 sequence (P56481 1-453): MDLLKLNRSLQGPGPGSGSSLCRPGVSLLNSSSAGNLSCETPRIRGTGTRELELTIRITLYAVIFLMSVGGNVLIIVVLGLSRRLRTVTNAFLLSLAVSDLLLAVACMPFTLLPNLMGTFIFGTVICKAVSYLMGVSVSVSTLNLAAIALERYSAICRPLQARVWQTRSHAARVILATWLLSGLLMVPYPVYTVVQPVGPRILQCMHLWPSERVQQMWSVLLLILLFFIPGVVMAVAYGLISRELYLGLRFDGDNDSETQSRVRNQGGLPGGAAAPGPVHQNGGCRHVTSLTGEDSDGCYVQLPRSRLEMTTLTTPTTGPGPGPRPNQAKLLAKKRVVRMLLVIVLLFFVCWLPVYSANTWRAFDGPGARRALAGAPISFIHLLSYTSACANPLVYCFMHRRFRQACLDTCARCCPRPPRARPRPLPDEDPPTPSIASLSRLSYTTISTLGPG
Method: (§1) The pharmacological effect of compounds (I) prepared in Examples above were evaluated in vitro with respect to antagonistic activity against gastrin receptor, CCK-B receptor or CCK-A receptor, using fundic gland cells of guinea pig, crude membrane specimen from mouse cerebral cortex, or crude membrane specimen from mouse pancreas, respectively.
(§2) Male Hartley guinea pig (450-600 g) or male ddY mouse (24-30 g) were used.
(§3) (2) CCK-A Receptor Antagonism and CCK-B Receptor Antagonism Preparation of CCK receptor preparations Male ddY mice (24 to 30 g) were killed by decapitation and cerebral cortex (CCK-B) and pancreas (CCK-A) were extracted immediately. Each of cerebral cortex and pancreas was mixed with 50 mM Tris-HCl buffer (pH 7.4) and homogenized with a teflon-glass homogenizer and polytron homogenizer to obtain crude membrane specimens.
(§4) Preparation of test compounds and procedures of displacing assay
(§5) A 1M solution of a compound to be tested in DMSO is prepared and diluted with 50% DMSO to obtain a ten-fold dilution series.
(§6) The reaction is initiated by the addition of crude membrane specimen to solutions of different concentration each containing [^3 H]CCk-8 (final concentration, 1 nM). The mixture is incubated for 90 min at 25° C., filtered through glass filter with aspiration and washed with a cooled 50 mM Tris buffer. After the addition of Aquazol-2 cocktail the radioactivity is counted. The same procedure was repeated using 50% DMSO solution or Ceruletide (final concentration, 1 μM) instead of a solution of test compound so as to obtain the control value regarding total binding or the value regarding non-specific binding, respectively.
(§7) The IC50 was determined by plotting the ratio (%) of specific binding of a test compound to that of control on semilogarithmic graph and obtaining the concentration corresponding to 50%, wherein: specific binding of control=total binding (cpm)--non-specific binding (cpm); and specific binding of test compound=total binding (cpm)--non-specific binding (cpm).

CCK-A receptor = target: T2, CCK-A receptor (Mus musculus, UniProt O08786); assay: CCK-A receptor antagonism: displacement of [3H]CCK-8 from crude membrane of pancreas; type: binding, mouse (male ddY); conditions: [3H]CCK-8 1 nM, 90 min, 25° C.
T2 construct: crude membrane specimen from mouse pancreas; from tissue; host or cells: pancreas of male ddY mice, crude membranes
T2 sequence (O08786 1-436): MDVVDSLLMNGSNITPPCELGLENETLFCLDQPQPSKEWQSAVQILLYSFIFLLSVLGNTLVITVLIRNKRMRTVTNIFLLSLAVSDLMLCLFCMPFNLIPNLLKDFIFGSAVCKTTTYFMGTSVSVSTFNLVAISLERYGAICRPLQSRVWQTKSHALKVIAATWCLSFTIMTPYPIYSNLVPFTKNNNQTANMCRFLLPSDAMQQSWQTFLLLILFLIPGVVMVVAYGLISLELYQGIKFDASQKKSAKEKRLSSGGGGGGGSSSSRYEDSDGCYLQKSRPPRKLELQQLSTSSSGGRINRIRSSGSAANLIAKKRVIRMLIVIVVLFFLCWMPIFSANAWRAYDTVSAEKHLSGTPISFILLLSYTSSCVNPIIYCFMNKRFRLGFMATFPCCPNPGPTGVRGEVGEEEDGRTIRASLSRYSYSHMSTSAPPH
Method: as §1, §2, §3, §4, §5, §6, §7

gastrin receptor = target: T3, gastrin receptor (Cavia porcellus, UniProt H0VZC5); assay: Gastrin receptor antagonism: displacement of 125I-labeled gastrin from gastric glands; type: binding, guinea pig (male Hartley); conditions: guinea pig fundic gastric glands; 125I-gastrin 0.2 nM; 30 min, 25° C.
T3 construct: stomach was extracted from each animal immediately, from which gastric glands were prepared; from tissue; host or cells: gastric (fundic) glands of male Hartley guinea pigs
T3 sequence (H0VZC5 1-426): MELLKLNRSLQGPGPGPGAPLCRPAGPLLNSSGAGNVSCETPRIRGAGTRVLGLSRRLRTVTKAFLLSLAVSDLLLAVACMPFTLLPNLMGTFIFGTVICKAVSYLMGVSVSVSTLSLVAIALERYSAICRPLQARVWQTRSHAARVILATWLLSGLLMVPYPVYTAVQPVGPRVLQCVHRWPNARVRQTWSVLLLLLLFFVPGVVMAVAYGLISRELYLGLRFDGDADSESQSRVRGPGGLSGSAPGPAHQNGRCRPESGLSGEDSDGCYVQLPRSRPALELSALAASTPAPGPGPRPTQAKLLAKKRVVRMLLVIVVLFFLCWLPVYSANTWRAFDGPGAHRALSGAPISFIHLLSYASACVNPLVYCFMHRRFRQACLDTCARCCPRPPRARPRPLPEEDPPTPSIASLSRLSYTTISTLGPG
Method: as §1, §2
(1) Gastrin Receptor Antagonism
Preparation of gastric glands
Male Hadley guinea pigs (450-600 g) were killed by bleeding and stomach was extracted from each animal immediately, from which gastric glands were prepared.
Preparation of test compounds and procedures of displacing assay A 1M solution of a compound to be tested in DMSO is prepared and diluted with 50% DMSO to obtain a ten-fold dilution series.
The reaction is initiated by the addition of gastric glands to solutions of different concentration each containing ^125 I-labeled gastrin (final concentration, 0.2 nM). The mixture is incubated for 30 min at 25° C., centrifuged at 2000 rpm for 5 min and the supernatant is removed by aspiration. To the pellet is added ice-cooled incubation buffer and mixed gently, followed by an immediate centrifugation and removal of the supernatant by aspiration. The radioactivity is counted on gamma counter. The same procedure was repeated using 50% DMSO solution or human gastrin I (final concentration, 2 μM) instead of a solution of test compound so as to obtain the control value regarding total binding or the value regarding non-specific binding, respectively.
as §7

gastric acid secretion = assay: Inhibitory effect on pentagastrin-stimulated gastric acid secretion in anesthetized rat (perfused stomach, Schild method); type: in vivo, rat (Sprague Dawley); conditions: intraduodenal (i.d.), 0.5% M.C. suspension
From the text: Anti-acid secreting function of carbamoylmethylurea derivative (I) of the present invention has been confirmed by the in vivo experiment (cf. Schild Method; Experiment 1 below). […] From the results of these experiments, it is apparent that the carbamoylmethylurea derivative (I) has an anti-acid secreting function, and is an excellent gastrin receptor antagonist and/or CCK-B receptor antagonist which has enough functional separativeness from CCK-A receptor.
Experiment 1 In Vivo Test
Evaluation of Inhibitory Effect on Gastric Acid Secretion by Child Method
Twenty four hour starved (ad libitum for water) male Sprague Daily rats (8-week-old) were anesthetized with urethane (1.5 g/kg S.C.) and kept breathing with esophagus cannulas. After laparotomy, esophagus cannulas were inserted orally up to proventriculus and ligated around gastric cardiac. Perfusion cannulas were inserted from duodenum into stomach and ligated around pylorus. Another cannulas were placed into duodenum and ligated for administration of drug. After sutra of abdomen, stomach was perfused via the esophagus cannulas with physiological saline (37° C.) while collecting perfusate for a 15 min interval. The perfusate was subjected to titration with 0.001N NaOH solution to determine the acidity. When the basal acid secretion became stable, pentagastrin ([…])was administered in a sustained manner via common carotid vein for about 90 min until the acid secretion reached approximately the highest level, when a test compound (0.5% M.C. suspension) was administered into duodenum through cannulas. The perfusate was collected for a 15 min interval to monitor the acid secretion for 90 min. The percent inhibition was calculated as follows:
Percent inhibition (%)=100×(A-B)/(C-B)
A: the minimum value of total acidity observed after the administration of a test compound;
B: the total acidity obtained immediately before the administration of pentagastrin; and
C: the total acidity obtained immediately before the administration of a test compound.

CC(C)(C)OC(=O)CN(C(=O)CNC(=O)Nc1cccc(C(F)(F)F)c1)c1ccccc1C(=O)C1CCCCC1 [Compound 15b, Cyclohexyl-(2-(N-(t-butoxycarbonylmethyl)-N-(N'-(m-trifluoromethylphenyl)ureidomethylcarbonyl)amino)phenyl)ketone]
IC50 (CCK-B receptor): 6 nM | IC50 (CCK-A receptor): 1150 nM | IC50 (gastrin receptor): 5 nM | ED50 (gastric acid secretion; Rattus norvegicus): 0.026 mg/kg

Cc1cccc(NC(=O)N[C@@H]2N=C(c3ccccc3)c3ccccc3N(CC(=O)c3ccccc3C)C2=O)c1 [YM-022, reference compound]
IC50 (CCK-B receptor): 2 nM | IC50 (CCK-A receptor): 100 nM | IC50 (gastrin receptor): 2 nM | ED50 (gastric acid secretion): 0.107 mg/kg

Source: patent US5739162A, “Carbamoylmethylurea derivatives” (Shionogi & Co., Ltd., priority 1994, dated 1998)
